Here are results for 16 compounds from ChEMBL document CHEMBL1137514, “Synthesis and biological evaluation of non-peptide alpha(v)beta(3)/alpha(5)beta(1) integrin dual antagonists containing 5,6-dihydropyridin-2-one scaffolds” (Bioorg Med Chem, 2007).

Residues, ends and D or L forms follow the SMILES beside them. A value given as a limit tells only on which side of the number the result lay.

In one assay the target is Integrin alpha-V/beta-3 (Homo sapiens, UniProt P05106+P06756). In words: Inhibition of integrin alpha-V-beta-3-mediated SK-MEL-24 cell adhesion to fibronectin.
In the next assay the target is Integrin alpha-5/beta-1 (Homo sapiens, UniProt P05556+P08648). In words: Inhibition of integrin alpha-5-beta-1-mediated K562 cell adhesion to fibronectin. Format: cell-based.
Chain of Integrin alpha-5/beta-1 (P05556 21-798 limits assumed): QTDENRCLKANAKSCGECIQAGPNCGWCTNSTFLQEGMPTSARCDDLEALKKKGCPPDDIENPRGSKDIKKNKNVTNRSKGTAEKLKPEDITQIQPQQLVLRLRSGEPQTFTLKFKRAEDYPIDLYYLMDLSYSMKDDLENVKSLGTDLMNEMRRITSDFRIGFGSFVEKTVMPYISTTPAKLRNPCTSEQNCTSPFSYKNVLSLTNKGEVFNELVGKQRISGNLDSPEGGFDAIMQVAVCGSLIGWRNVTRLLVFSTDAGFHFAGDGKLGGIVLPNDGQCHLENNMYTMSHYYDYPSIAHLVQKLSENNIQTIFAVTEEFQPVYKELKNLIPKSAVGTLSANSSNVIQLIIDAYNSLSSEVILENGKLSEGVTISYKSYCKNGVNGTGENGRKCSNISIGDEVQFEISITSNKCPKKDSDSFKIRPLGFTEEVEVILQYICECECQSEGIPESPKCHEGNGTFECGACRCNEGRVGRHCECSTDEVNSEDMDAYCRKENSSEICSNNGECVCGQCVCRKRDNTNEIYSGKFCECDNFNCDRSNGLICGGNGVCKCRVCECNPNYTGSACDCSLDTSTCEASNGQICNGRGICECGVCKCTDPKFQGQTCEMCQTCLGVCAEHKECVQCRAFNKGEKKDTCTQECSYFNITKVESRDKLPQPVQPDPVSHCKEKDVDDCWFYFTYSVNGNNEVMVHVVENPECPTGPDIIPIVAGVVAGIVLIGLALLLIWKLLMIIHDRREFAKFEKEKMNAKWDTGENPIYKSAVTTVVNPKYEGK
Chain of Integrin alpha-5/beta-1 (P08648 42-894 limits assumed): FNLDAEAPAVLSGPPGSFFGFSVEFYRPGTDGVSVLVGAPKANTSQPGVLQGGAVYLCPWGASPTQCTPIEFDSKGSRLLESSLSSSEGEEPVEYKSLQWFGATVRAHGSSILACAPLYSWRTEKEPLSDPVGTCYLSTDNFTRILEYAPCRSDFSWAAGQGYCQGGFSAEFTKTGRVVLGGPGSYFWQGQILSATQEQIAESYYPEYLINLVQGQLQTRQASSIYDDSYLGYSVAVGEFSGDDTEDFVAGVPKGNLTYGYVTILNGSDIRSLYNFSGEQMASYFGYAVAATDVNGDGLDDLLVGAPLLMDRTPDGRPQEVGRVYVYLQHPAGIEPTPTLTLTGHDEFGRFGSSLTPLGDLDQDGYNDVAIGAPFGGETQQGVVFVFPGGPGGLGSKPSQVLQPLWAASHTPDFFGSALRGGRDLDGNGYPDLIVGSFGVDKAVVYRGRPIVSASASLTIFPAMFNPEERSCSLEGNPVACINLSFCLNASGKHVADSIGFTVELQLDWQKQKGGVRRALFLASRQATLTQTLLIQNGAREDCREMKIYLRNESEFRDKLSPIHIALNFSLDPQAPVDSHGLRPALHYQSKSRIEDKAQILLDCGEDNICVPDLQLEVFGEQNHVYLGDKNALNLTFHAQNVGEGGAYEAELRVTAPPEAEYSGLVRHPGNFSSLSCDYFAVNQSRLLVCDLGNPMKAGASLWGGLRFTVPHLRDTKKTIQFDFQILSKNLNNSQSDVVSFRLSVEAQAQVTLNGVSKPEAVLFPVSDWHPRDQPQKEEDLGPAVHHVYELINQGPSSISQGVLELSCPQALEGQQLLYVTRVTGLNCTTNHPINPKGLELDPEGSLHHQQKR
Chain of Integrin alpha-5/beta-1 (P08648 895-1049 limits assumed): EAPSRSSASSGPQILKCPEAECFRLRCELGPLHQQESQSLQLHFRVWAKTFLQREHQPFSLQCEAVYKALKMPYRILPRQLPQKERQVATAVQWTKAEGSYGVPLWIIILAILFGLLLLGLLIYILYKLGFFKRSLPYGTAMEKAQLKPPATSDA

Chain of Integrin alpha-V/beta-3 (P05106 27-788 limits assumed): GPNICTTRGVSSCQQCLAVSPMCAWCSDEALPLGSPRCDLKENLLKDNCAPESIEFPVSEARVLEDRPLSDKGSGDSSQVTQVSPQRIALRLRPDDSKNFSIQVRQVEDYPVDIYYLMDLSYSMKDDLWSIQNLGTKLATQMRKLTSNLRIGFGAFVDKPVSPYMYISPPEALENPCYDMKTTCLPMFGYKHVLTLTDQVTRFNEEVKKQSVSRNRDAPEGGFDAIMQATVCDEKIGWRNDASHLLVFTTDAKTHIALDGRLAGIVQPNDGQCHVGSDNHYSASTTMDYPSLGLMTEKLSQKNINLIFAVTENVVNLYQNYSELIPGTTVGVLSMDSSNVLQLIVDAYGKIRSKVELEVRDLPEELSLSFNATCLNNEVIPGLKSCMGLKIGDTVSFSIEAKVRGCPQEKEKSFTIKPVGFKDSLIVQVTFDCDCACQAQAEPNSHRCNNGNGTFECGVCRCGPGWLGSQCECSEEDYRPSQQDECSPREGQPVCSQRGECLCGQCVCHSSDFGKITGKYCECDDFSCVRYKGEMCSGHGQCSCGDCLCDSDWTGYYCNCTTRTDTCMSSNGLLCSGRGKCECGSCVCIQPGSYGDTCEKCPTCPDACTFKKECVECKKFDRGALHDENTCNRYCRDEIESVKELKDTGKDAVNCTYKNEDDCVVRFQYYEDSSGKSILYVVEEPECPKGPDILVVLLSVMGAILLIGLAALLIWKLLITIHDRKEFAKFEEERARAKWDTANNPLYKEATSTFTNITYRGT
Chain of Integrin alpha-V/beta-3 (P06756 31-889 limits assumed): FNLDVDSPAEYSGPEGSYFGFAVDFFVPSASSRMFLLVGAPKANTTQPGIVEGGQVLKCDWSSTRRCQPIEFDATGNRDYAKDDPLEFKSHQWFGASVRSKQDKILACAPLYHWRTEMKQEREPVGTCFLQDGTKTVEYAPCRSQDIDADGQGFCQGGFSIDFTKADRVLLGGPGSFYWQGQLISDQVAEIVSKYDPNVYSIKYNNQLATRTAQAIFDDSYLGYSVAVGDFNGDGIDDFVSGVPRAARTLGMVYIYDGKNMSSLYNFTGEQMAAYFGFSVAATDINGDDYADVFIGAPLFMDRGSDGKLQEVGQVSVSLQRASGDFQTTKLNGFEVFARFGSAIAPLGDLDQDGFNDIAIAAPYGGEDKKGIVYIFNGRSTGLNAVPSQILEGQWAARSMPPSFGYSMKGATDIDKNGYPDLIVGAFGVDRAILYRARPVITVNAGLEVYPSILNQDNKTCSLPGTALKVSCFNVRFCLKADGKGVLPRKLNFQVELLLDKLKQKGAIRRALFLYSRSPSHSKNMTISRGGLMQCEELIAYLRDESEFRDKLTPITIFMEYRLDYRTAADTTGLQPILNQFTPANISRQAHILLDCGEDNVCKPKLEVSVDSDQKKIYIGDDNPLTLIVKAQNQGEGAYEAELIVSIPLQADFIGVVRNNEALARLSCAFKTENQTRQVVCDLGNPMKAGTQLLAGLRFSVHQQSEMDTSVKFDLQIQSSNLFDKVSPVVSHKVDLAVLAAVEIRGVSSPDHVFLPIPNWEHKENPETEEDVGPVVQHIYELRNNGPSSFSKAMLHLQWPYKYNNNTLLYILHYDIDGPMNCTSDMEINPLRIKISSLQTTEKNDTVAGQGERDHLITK
Chain of Integrin alpha-V/beta-3 (P06756 891-1048 limits assumed): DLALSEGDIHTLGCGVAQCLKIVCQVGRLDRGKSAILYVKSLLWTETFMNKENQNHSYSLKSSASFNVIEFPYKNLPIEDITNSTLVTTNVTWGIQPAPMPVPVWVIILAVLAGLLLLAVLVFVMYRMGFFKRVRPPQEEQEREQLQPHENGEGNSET

As a reminder, the IC50 is the concentration that inhibits the measured activity by half. The low end stands for greater potency, the high end for weaker potency. As to `CCCN(C(=O)C(CC(=O)OC)C(=O)O)C1=C(C)CC(c2ccccc2)N(Cc2ccc(N)cc2)C1=O` (configuration not stated), the values for the IC50 at Integrin alpha-V/beta-3 and against Integrin alpha-5/beta-1 were 45 µM and more than 1000 µM, respectively.
For the compound `CCCN(C(=O)C(CC(=O)O)C(=O)O)C1=C(C)CC(c2ccccc2)N(Cc2ccc(N)cc2)C1=O` (configuration not stated), the IC50 at Integrin alpha-V/beta-3 and against Integrin alpha-5/beta-1 was more than 1000 µM in each case.
Take `CC(=O)N[C@@H](CC(=O)O)C(=O)N[C@@H](CCCNC(=N)N)C(=O)N[C@@H](CC(C)C)C(=O)N[C@@H](CC(=O)O)C(=O)N[C@@H](CO)C(=O)O` (Ac-DRLDS-OH): the results for the IC50 on Integrin alpha-V/beta-3 and against Integrin alpha-5/beta-1 were 0.025 µM and 259 µM, respectively.
The matching figures for `CCCN(C(=O)CC(=O)O)C1=C(C)C[C@@H](c2ccccc2)N([C@@H](C)c2ccc(N)cc2)C1=O`: 0.071 µM and 0.057 µM.
On to `CCCN(C(=O)CC(=O)O)C1=C(C)C[C@@H](c2ccc(N)cc2)N([C@@H](C)c2ccc(OC)cc2)C1=O`, for which the IC50 against Integrin alpha-V/beta-3 is 0.24 µM; at Integrin alpha-5/beta-1, more than 1000 µM.
`CCCN(C(=O)CC(=O)O)C1=C(C)CC(c2ccccc2)N(Cc2ccc(C(=N)N)cc2)C1=O` (configuration not stated): the results for the 50% inhibitory concentration (IC50) on Integrin alpha-V/beta-3 and against Integrin alpha-5/beta-1 were 120 µM and more than 1000 µM, respectively.
For `CCCN(C(=O)CC(=O)O)C1=C(C)CC(c2ccccc2)N(Cc2ccc(N)cc2)C1=O` (configuration not stated) the same measures were 0.6 µM and 0.17 µM.
Regarding `CCCN(C(=O)CC(=O)O)C1=C(C)CC(c2ccccc2)N(CCCCN)C1=O` (configuration not stated), the half-inhibitory concentration (IC50) came out at 0.038 µM at Integrin alpha-V/beta-3 and 0.043 µM at Integrin alpha-5/beta-1.
The matching figures for `CCCN(C(=O)CCCCCN)C1=C(C)CC(c2ccccc2)N(CCC(=O)O)C1=O` (configuration not stated): more than 1000 µM and more than 1000 µM.
The matching figures for `CCCN(C(=O)CCC(=O)O)C1=C(C)CC(c2ccccc2)N(Cc2ccc(C(=N)N)cc2)C1=O` (configuration not stated): more than 1000 µM and more than 1000 µM.
Turning to `CCCN(C(=O)C(CC(=O)O)C(=O)O)C1=C(C)CC(c2ccccc2)N(Cc2ccc(C(=N)N)cc2)C1=O` (configuration not stated), the IC50 on Integrin alpha-V/beta-3 and at Integrin alpha-5/beta-1 was more than 1000 µM each time.
Take `CCCN(C(=O)CC(=O)O)C1=C(C)C[C@H](c2ccccc2)N([C@@H](C)c2ccc(N)cc2)C1=O`: the IC50 against Integrin alpha-V/beta-3 was determined as 15.1 µM; at Integrin alpha-5/beta-1 it was 35.1 µM.
Take `CCCN(C(=O)CC(=O)O)C1=C(C)C[C@H](c2ccc(N)cc2)N([C@@H](C)c2ccc(OC)cc2)C1=O`: the half-inhibitory concentration (IC50) against Integrin alpha-V/beta-3 stood at 21 µM; at Integrin alpha-5/beta-1 it was 0.018 µM.
With `CCCN(C(=O)CC(=O)O)C1=C(C)CC(c2ccc(C(=N)N)cc2)N([C@@H](C)c2ccc(OC)cc2)C1=O` (some centres not stated), the IC50 against Integrin alpha-V/beta-3 and against Integrin alpha-5/beta-1 was more than 1000 µM throughout.
On to `CCCN(C(=O)C(CC(=O)OC)C(=O)O)C1=C(C)CC(c2ccccc2)N(Cc2ccc(C(=N)N)cc2)C1=O` (configuration not stated), for which the concentration for half-maximal inhibition (IC50) against Integrin alpha-V/beta-3 and against Integrin alpha-5/beta-1 was more than 1000 µM each time.
In the case of `CCCN(C(=O)CCN)C1=C(C)CC(c2ccccc2)N(CCC(=O)O)C1=O` (configuration not stated), the IC50 on Integrin alpha-V/beta-3 and at Integrin alpha-5/beta-1 was more than 1000 µM in each case.
